Entries after “also recorded” stand apart in the source; their conditions may differ.
Experiments:
[1] = system: HCoV-OC43; assay: Time-of-addition, CPE reduction in MRC-5 cells, HCoV-OC43; format: cell-based, Human coronavirus OC43; settings: HCoV-OC43, MRC-5 cells, 48 h
Method: (§1) For antiviral activity, cells in 96-well plates were infected and treated with test compounds as indicated and incubated for 48–72 h. Cell viability was quantified by WST (EZ-Cytox) at 450 nm on the same reader. Cytoprotective effect was calculated by normalizing to infected DMSO controls and converting to percent protection: % Protection = ((V_drug + virus − V_virus-only)/(V_mock − V_virus-only)) × 100.
(§2) For HCoV-OC43, TOA was assessed by CPE reduction in MRC-5 cells and by TCID50 on Vero E6 (no IFA collected).
(§3) Figure S14. Time-of-addition (TOA) analysis of KB-2777 against HCoV-NL63 (48 h). (a) CPE-reduction assay. KB-2777 was applied at 20 µM (blue) or 5 µM (red) under the indicated TOA conditions (Full, Pre, Co, Post, DMSO).
Cell protection (%) was calculated relative to the DMSO control. Bars show mean ± SD (n = 3). […] (b) Infectious progeny released under the same TOA conditions, quantified as log10(TCID₅₀/mL) from culture supernatants (see Methods). […]
(§4) Figure S15. […] Cell protection (%) was calculated relative to the DMSO control. […]
(§5) Statistics: one-way ANOVA with Dunnett’s multiple comparisons vs DMSO; *P<0.05, **P<0.01, ***P<0.001, ****P<0.0001. (b) Infectious progeny released under the same TOA conditions, quantified as log₁₀(TCID₅₀/mL) from culture supernatants by endpoint dilution on Vero E6 indicator cells (Spearman–Kärber method; see Methods). […]

[2] = system: HCoV-NL63; assay: Infectious titer (TCID50) of HCoV-NL63 at 48 h; format: cell-based, Human coronavirus NL63
Method: (§6) HCoV-OC43 (KBPV-VR-8), HCoV-NL63 (KBPV-VR-88), and PEDV DR13 (originally described in [20]) were used. HCoV-NL63 was propagated in LLC-MK2 cells, and HCoV-OC43 and PEDV DR13 were propagated in Vero E6 cells. Virus-containing supernatants were clarified (2000× g, 10 min, 4 °C), aliquoted, and stored at −80 °C. Infectious titers (TCID50/mL) were determined on the corresponding host cell lines by the Spearman–Kärber method with back-titrations included in each experiment.
We sought to confirm whether the antiviral activity observed by RT-qPCR was also present at the level of infectious progeny virus. […] Bars represent mean ± SEM; n = 3 independent experiments (triplicate wells per concentration).

[3] = system: HCoV-OC43; assay: Time-of-addition, TCID50 on Vero E6, HCoV-OC43; format: cell-based, Human coronavirus OC43; settings: HCoV-OC43, titrated on Vero E6, 48 h
Method: as §6, §2, §3
(§7) Cell protection (%) was calculated relative to the DMSO control. […] (b) Infectious progeny released under the same TOA conditions, quantified as log10(TCID₅₀/mL) from culture supernatants (see Methods). […]
as §4, §5

[4] = system: HCoV-NL63; assay: Time-of-addition, CPE-based cell protection (EZ-Cytox), HCoV-NL63/LLC-MK2; design: species or system Human coronavirus NL63; settings: HCoV-NL63, 5 µM and 20 µM, 48 h post-infection
Method: as §1, with “100. […]” for “100.”
Unless otherwise specified, infections were carried out at 100 TCID50 per well with 1 h adsorption at 37 °C, and compounds were used at 20 µM. Primary readout was S protein IFA at 48 h; EZ-Cytox and TCID50 at 48 h for the same regimens are provided in Supplementary Data (Figures S14 and S15). […]
as §7, §4, §5

[5] = system: HCoV-NL63-infected LLC-MK2 cells; assay: Propidium iodide (PI) live/dead imaging in HCoV-NL63/LLC-MK2; format: cell-based, rhesus monkey; settings: 20 µM post-treatment, 48 h post-infection, vs virus + DMSO, p < 0.01
Method: Cells were infected as in the immunofluorescence assay (IFA) and were post-treated with KB-2777 (20 µM, DMSO ≤ 0.1%). At 48 h post-infection, cells were stained live with PI (approximately 1 µg/mL, 30 min) and were immediately imaged (PI/Hoechst). For each field, we counted total nuclei (Hoechst), NL63 S-positive cells, PI-positive cells, and double-positive (S∩PI) cells. Outcomes were % PI^+/Total and % PI^+ among infected cells (PI^+/NL63 S^+). […] Statistics used the Mann–Whitney U test (two-tailed).

[6] = Visible crystals or precipitates in the cell assay (soluble range); format: physicochemical; settings: cell assay medium; without loss of viability or morphological change
Method: We screened 11 oxazole-4-carboxamide derivatives (Figure 1) against HCoV-NL63 in LLC-MK2 cells and quantified antiviral activity and cytotoxicity (Figure 2). Several derivatives inhibited NL63 with distinct selectivity profiles. […] Visible crystals or precipitates formed at ≥50 µM without loss of viability or morphological change; therefore, downstream assays were performed at ≤25 µM.

[7] = Cytotoxicity (EZ-Cytox WST) in LLC-MK2 cells; format: cell-based; settings: rhesus monkey, 72 h exposure
Method: Cells were seeded at 2 × 10^4 cells per well in 96-well plates and, after overnight attachment, exposed to test compounds for 72 h in maintenance medium. The final DMSO concentration was ≤0.1% (v/v) for all conditions, including vehicle controls. Cell viability was quantified using EZ-Cytox WST reagent (DoGenBio, Seoul, Republic of Korea) according to the manufacturer’s instructions; absorbance was read at 450 nm on a SpectraMax i3x microplate reader (Molecular Devices, San Jose, CA, USA). Viability for each well was normalized to the mean of vehicle-treated (mock) controls on the same plate and expressed as percent viability. Each condition included technical replicates (n = 3) per experiment. Concentration–response data from ≥3 independent experiments were fit to a four-parameter logistic (4PL) model in GraphPad Prism 10.1.2 (GraphPad Software, San Diego, CA, USA) (log10-transformed concentrations; bottom and top unconstrained).

With `COc1cccc(-c2oc(-c3ccc(C(F)(F)F)cc3)nc2C(=O)NCC2CC2)c1` [KB-2777, N-(cyclopropylmethyl)-5-(3-methoxyphenyl)-2-(4-(trifluoromethyl)phenyl)Oxazole-4-Carboxamide] the “CPE reduction across TOA regimens” value [1] was “greatest antiviral effect with full exposure, intermediate activity with pre- and post-treatment, and little or no effect with co-treatment”, the “infectious titer (TCID50) vs virus control” value ([2]; HCoV-NL63, 48 h, post-treatment, 12.5 µM and 25 µM, p < 0.0001, n = 3) was “decreased; also recorded: significant reductions” and the “infectious titers (log10[TCID50/mL]) across TOA regimens” value ([2]; HCoV-NL63, 48 h post-infection, full/pre/co/post) was “decreased in a regimen-dependent manner, largest with full exposure, smaller with pre- and post-treatment, and minimal with co-treatment”. For the same compound, the “TCID50 across TOA regimens” value [3] was “greatest antiviral effect with full exposure, intermediate activity with pre- and post-treatment, and little or no effect with co-treatment”, the “CPE-based cell protection across TOA regimens” value [4] was “reproduced this pattern” and the “% PI+ among infected cells (PI+/NL63 S+)” value [5] was “reduces”. For the same compound, the “% PI+/Total cells” value [5] was “reduces”, the “concentration at which visible crystals or precipitates formed” value [6] was ≥ 50 µM and the CC50 at 72 h [7] was > 50 µM.
